# Values of other authors, collected in US6949259B1, “Solid preparations for oral use” (Kyorin Pharmaceutical Co., Ltd., priority 1999, dated 2005).
# Tests used:
# [1] = Nomura M. et al, Bioorg. Med. Chem. Lett., 9 (1999), 533-538
# [2] = Nomura M. et al, Bioorg. Med. Chem. Lett., 9 (1999), 533-538; remark: listed apart in the source
smiles,measurement,setting,value
"COc1ccc(CC2SC(=O)NC2=O)cc1C(=O)NCc1ccc(C(F)(F)F)cc1 (racemic) [KRP-297, (±)-5-[(2,4-dioxothiazolidine-5-yl)methyl]-2-methoxy-N-[[4-(trifluoromethyl)phenyl]methyl]-benzamide]",blood glucose-lowering action,[1],potent blood glucose-lowering action
same,lipid-lowering action,[2],lipid-lowering action
